In patent publication US9580465B2, “Tissue protective peptides and peptide analogs for preventing and treating diseases and disorders associated with tissue damage” (ARAIM PHARMACEUTICALS, INC., priority 2008, dated 2017):
“Also recorded” adds a separate entry of the source. Square brackets hold non-standard residues; d marks the D form. pGlu = O=C1CC[C@@H](C(=O)O)N1

How the values were obtained:
UT-7epo cells = assay: UT-7epo proliferation/survival assay of erythropoietic potency; format: cell-based, human; settings: 5 pM to 50 nM, 48 h incubation, WST-I reagent; FIG. 1
Procedure: The cells were maintained in 75 cm^2 flasks with 20 ml of medium/flask in a humidified incubator with 5% CO2 at 37° C. for 48 h. On day two of the assay, i.e., at 48 h, the cells were transferred from the flask into a 50-ml conical tube and centrifuged at 1,000 rpm for 5 minutes at room temperature. The supernatant was discarded and the cells were washed two times with 10 ml of starvation media (3% donor calf serum, 4 mM L-glutamine). The cells were then re-suspended in starvation media, using up and down pipette action to obtain a single cell suspension. The re-suspended cells were diluted with starvation media to obtain a density of 4×10^5 cells/ml, and plated at a total culture volume of 10 ml per 25 cm^2 flask. Following a 4 h incubation, the cells were again transferred to a 50-ml conical tube.
A series of 10 fold dilutions in RPMI 1640 medium containing 3% serum was used to generate concentrations of test compounds from 5 pM to 50 nM. Following a further for 48 h incubation, a solution of […] WST-I Cell Proliferation Reagent (Roche) was added to each well, and incubated for 1 hour at 37° C. in CO2. After mixing for 1 minute, the plate was read in a plate reader (absorption at 450 nm, subtracted from background absorption at 650 nm).

[1] = In vivo assessment of erythropoietic activity, 28 days i.v. in rats; parameters: species or system Sprague Dawley rats; settings: 0, 60, 180, 600 μg/kg per dose i.v. twice a day for 28 days; blood on day 29; FIG. 2
Procedure: To evaluate the erythropoietic activity of tissue protective peptides and peptide analogs, Peptide ID was administered intravenously twice a day to Sprague Dawley rats for 28 days. Nine male and nine female rats were assigned to groups 1-4 receiving 0, 60, 180, and 600 μg/kg per dose (0, 48, 143, and 477 nmol/kg, respectively) of Peptide ID in PBS by bolus intravenous administration from days 1-28, Blood samples to assay for hematological variables were collected on day 29. Hemoglobin concentration was determined by use of an automated analyzer (Keska Corporation).

bilateral renal ischemia = assay: Bilateral renal ischemia assay; format: in vivo, C57/BL6 mice
Procedure: Sixty male C57/BL6 mice (˜25 g; Charles River Laboratories) were anesthetized with ketamine (150 mg/kg) and xylazine (15 mg/kg) i.p. Each animal was placed on a homeothermic blanket set at 37° C., and after a mid-line laparotomy, the renal pedicles were clamped for 30 minutes using nontraumatic vascular clamps. Peptide ID was administered at the indicated dose via i.p. Injection at 1 minute, 6 hours, and 12 hours after reperfusion. In a single dose study, the mice received a control (PBS), 1 μg/kg of Peptide IG at 1 minute, 1 μg/kg of Peptide IG at 30 minutes, 1 μg/kg of Peptide ID at 6 hours, or 10 μg/kg of Peptide ID at 6 hours (12 mice per group). In a multiple dose study, the mice received either multiple doses of a control (PBS), 0.1 μg/kg of Peptide ID, 1 μg/kg of Peptide ID, or 10 μg/kg of Peptide ID at 1 minute, 6 hours and 12 hours into reperfusion.
Twenty-four hours later, mice were reanesthetized and blood was obtained by cardiac puncture. Plasma urea and creatine were used as indicators of renal dysfunction and aspartate aminotransferase was used as an indicator of renal injury. Data were analyzed using ANOVA followed by Dunnett's post hoc test comparison.

[2] = tested on: recall of previously experienced objects; assay: Novel object recognition paradigm; format: in vivo, Wistar rats
Procedure: A novel object recognition paradigm in rats was used to evaluate their recall of previously experienced objects. Specifically, adult Wistar rats were exposed to novel test objects and then reexposed to them 24 hours later. Animals were divided into 5 groups receiving either: (1) vehicle, (2) galantamine (3 mg/kg i.p.) 1 hr before testing as a positive control, (3) Peptide ID (24 nmol/kg bw i.p.) 3 hours after the first exposure to the novel objects, (4) Peptide ID (24 nmol/kg bw i.p.) twice daily for 5 days before training and continued through the day immediately after training, and (5) Peptide ID (24 nmol/kg bw i.p.) 1 hour before first exposure to the novel object.

[3] = tested on: 9 L/LacZ gliosarcoma cells; assay: Cortical tumor implant; format: in vivo, CD fisher rats; settings: 30 μg/kg i.p. daily for 25 days following implantation; FIG. 12
Procedure: A cortical tumor implant study was conducted in accordance with the protocol of Lampson et al. Cancer Res. 53:176-82:1993 to determine the effect of Peptide ID on the growth of the tumor.
In accordance with the protocol, male CD fisher rats were anesthetized and their right scalp was shaved and washed with disinfectant. A small incision was then made in the scalp overlying the right temporal cerebral cortex. A 1 mm hole was drilled through the calvarium, without puncturing the dura matter. Under aseptic conditions, living 50,000 9 L/LacZ gliosarcoma cells in 5 μl was slowly injected through a 22 gauge needle attached to a precision Hamilton syringe. Bone wax was then applied to the trephanation site, the skin was sutured and a prophylactic dose of antibiotic was administered i.p. Control rats were provided with saline injections i.p. daily. The rats treated with Peptide ID received daily injections of 30 μg/kg i.p. daily for a period of 25 days. At 25 days following implantation, the animal was anesthetized and the brain perfused-fixed with 2% paraformaldehyde. The brain was then removed and cut on a brain matrix device into coronal sections 1 mm thick and the extent of tumor mass was determined by planimetric methodology.

pressure ulcer = assay: Decubitus ulcer (pressure sore) assay; format: in vivo, Sprauge-Dawley rats; settings: FIG. 20
Procedure: A decubitus ulcer (pressure sore) assay was performed on 24 adult Sprauge-Dawley rats in accordance with the disclosure of Pierce et al., Selective A2A adenosine receptor activation reduces skin pressure ulcer formation and inflammation, Am J Physiol Heart Circ Physiol 281:67-74, 2001. Briefly, a ferromagnetic steel plate was implanted under a dorsal region of the rats skin. A rectangular permanent magnet was applied to the area of the skin under which the plate was implanted in order to compress the skin between the plate and the magnet. This compression reduced the flow of blood to the skin causing ischemia. The rats were subjected to a cycle of ischemia-reperfusion (2 hours ischemia with a 0.5 hour reperfusion) for a 72-hour period. […] Daily the area of the wound on each rat was measured for a period of 12 days.

Sequence: UEQLERALNSS ([pGlu]EQLERALNSS-OH; also: acetate/ammonium mixed salt) [Peptide ID, first glutamine replaced with pyroglutamate]
- proliferation of UT-7 EPO cells (erythropoietic activity) (UT-7epo cells): no erythropoeitic activity; also recorded: did not result in proliferation of the cells
- hemoglobin concentration [1]: no difference in any of the groups
- creatinine, urea and aspartate aminotransferase (biochemical markers of renal dysfunction) (bilateral renal ischemia; multiple doses 1 μg/kg at 1 minute, 6 hours and 12 hours into reperfusion, FIG. 7): reduction in these biochemical markers of renal dysfunction
- creatinine, urea and aspartate aminotransferase (biochemical markers of renal dysfunction) (bilateral renal ischemia; multiple doses 10 μg/kg at 1 minute, 6 hours and 12 hours into reperfusion, FIG. 7): reduction in these biochemical markers of renal dysfunction
- creatinine, urea and aspartate aminotransferase (biochemical markers of renal dysfunction) (bilateral renal ischemia; single dose 1 μg/kg at 6 hours into reperfusion, 24 hrs of reperfusion, FIG. 6): reduction in these biochemical markers of renal dysfunction
- creatinine, urea and aspartate aminotransferase (biochemical markers of renal dysfunction) (bilateral renal ischemia; single dose 10 μg/kg at 6 hours into reperfusion, 24 hrs of reperfusion, FIG. 6): reduction in these biochemical markers of renal dysfunction
- recognition of the novel objects ([2]; galantamine 3 mg/kg of bw, Peptide ID 24 nmol/kg of bw at various time points, FIG. 9): increased the rats recognition of the novel objects
- recognition of the novel objects ([2]; group 3: 24 nmol/kg bw i.p. 3 hours after the first exposure to the novel objects): improved recognition of the novel objects
- recognition of the novel objects ([2]; group 4: 24 nmol/kg bw i.p. twice daily for 5 days before training and through the day after training): improved recognition of the novel objects
- relative volume of cortical tumor [3]: no growth in the tumor volume; also recorded: no increase in the relative volume of the tumor
- wound (ulcer) size (area) (pressure ulcer; 30 μg/kg sc daily, compared with all groups): smallest wound size
- wound (ulcer) size (area) (pressure ulcer; Peptide ID 30 μg/kg sc twice or daily, EPO daily, 12 days, versus saline): reduced the size of the wound; also recorded: better wound healing
